Results taken from patent publication US5276019A, “Inhibitors for replication of retroviruses and for the expression of oncogene products” (The United States of America as represented by the …, priority 1988, dated 1994).
Entries after “also recorded” stand apart in the source; their conditions may differ. Oligonucleotides are written 5' to 3', each unit as a sugar letter and its base; * is a phosphorothioate linkage, no mark a phosphodiester; rarer units and linkages stand in square brackets, end groups in braces. Plain capitals give the bases only. d = 2'-deoxy (DNA)

How the values were obtained:
[1] = tested on: de novo HIV DNA synthesis; experiment: Southern blot analysis of de novo HIV DNA synthesis in ATH8 cells; format: cell-based
Excerpt: Target cells (1×10^7 ATH8 cells) were pretreated with or without S-dC28 at various concentrations for sixteen hours, then treated with Polynrene, exposed to HIV (500 virus particles per cell), resuspended, and cultured in the presence or absence of S-dC28. On days 4 and 7 following the exposure to the virus, high molecular weight DNA was extracted, digested with Asp718 (a Kpn I isoschizomer from Boehringer-Mannheim, Indianapolis, Ind.), and subjected to Southern blot analysis hybridized with a labelled insert of molecular clone of the env region of HTLV-III (BH10) containing a 1.3 Kb Bgl II fragment.
On days 4 and 7 following the exposure to the virus, a substantial amount of viral DNA was detected by Southern blot analysis without antiviral agents.
On day 4, shown in lanes A-E, and day 7, shown in lanes F-J, following exposure to the virus, high molecular weight DNA was extracted. Lanes A and F contain DNA from ATH8 cells that were exposed to the virus and not protected by S-dC28. Lanes B and G, C and H, D and I, contain DNA from ATH8 cells pretreated and cultured with 1 micromole, 5 micromoles, and 7 micromoles S-dC28, respectively. Lanes E and J contain DNA from ATH8 cells treated with 50 micromoles 2',3'-dideoxyadenonsine, and lane K contains DNA from ATH8 cells that was not exposed to the virus.

[2] = tested on: HTLV-IIIB virus (HIV) in ATH8 cells; experiment: HIV cytopathic effect inhibition in ATH8 cells; format: cell-based; conditions: for anti-HIV activity / protection against cytopathic effect: ATH8 cells
Description: Because it is possible that inter-assay variation may create an inappropriate comparison of antiviral activity among agents, experiments were performed simultaneously to make more precise comparisons.
After a number of days in culture, generally 7-10 days, either substantial cell death due to HIV infection (HIV cytopathic effect) or the protective effect of oligos against the cytopathicity of HIV was observed.

gamma-interferon = experiment: Induction of gamma-interferon in culture supernatant; format: cell-based
Excerpt: Another mechanism which should be considered is induction of interferon production such as that proposed for phophorothioate analogs of poly-r(I-C). […] Also, since there are no data to support the concept that phosphorothioate internucleotide linkages have a thiol character, and can thus form disulfides, the mechanism of action would likely be different from that proposed for antiviral polynucleotides having thiolated bases such as 5-mercapto-cytosine or -uracil.

Solubility = format: physicochemical; conditions: acetate salts
Excerpt: Oligodeoxynucleotides with blocks of phosphorothioates at the 3' or 5' ends were synthesized by automatically changing the oxidation cycle at the required point. […] Introduction of a small amount of ammonia vapor, not aqueous ammonia, by a Pasteur pipette solubilized all the solids. The yield determined from absorbance at lambda max was about 30%.

[3] = tested on: T4, HLA-DR, T8, T3, or Tac antigen on ATH8 cells; experiment: Surface antigens of ATH8 cells by fluorescent-activated cytofluorometry; format: cell-based; conditions: i micromole, sixteen hours
Description: (§1) The possibility that the S-ODN analogs may interfere with HIV binding to target cells was tested.

P1 nuclease = experiment: Nuclease susceptibility, P1 nuclease; format: in vitro ADME
Excerpt: (§2) Several oligodeoxynucleotides were studied with regard to DNase sensitivity, cf. Table 5. These include cytidine homopolymers, ODN-4 (an anti-message 38-mer complementary to the 3' region of the art/trs region of HIV BH10 clone), and myc-1 (a 15-mer complementary to the initiation codon region of the C-myc oncogene). The DNases employed were predominantly endonuclease S1, the exo- and endonuclease P1, and snake venom (SV) phosphodiesterase. The concentration of S1 nuclease was ten-fold higher ([…]) for reactions of olifo-dC, since both the normal and PS analog were degraded extremely slowly be this enzyme. S1 and P1 nuclease digestion proceeded at 2-45 times more slowly for the S-ODNs than for the normal oligomers, with the […] being somewhat more readily digested than the 28-mer.

S1 nuclease = experiment: Nuclease susceptibility, S1 nuclease; format: in vitro ADME
Excerpt: as §2

p24 gag protein of HIV = experiment: HIV gag protein expression in chronically HIV-infected H9 cells (indirect immunofluorescence); format: cell-based; conditions: up to 25 micromoles, 120 hours
Description: The percentage of cells expressing p24 gag protein of HIV was determined by indirect immunofluorescence microscopy by using anti-HIV p24 murine monoclonal antibody.
Generally, it has been assumed that anti-sense sequences inhibit the expression of various genes by translation arrest, i.e. that they bind to mRNA and block its translation. In order to test this possibility, gag protein synthesis was analyzed in chronically HIV-infected and -producing H9 cells by indirect immunofluorescent assay under a microscope. […] Alternatively, the level of any translation arrest could have been below the threshold of detection by indirect immunofluorescent assay under a microscope. […] Therefore, one mechanism for the antiviral effect could depend on blocking viral replication perhaps prior to, or at the stage of, pro-viral DNA synthesis.

[4] = tested on: T4 molecule in T4 cells (H9 cells); experiment: HIV binding to T4 molecule in H9 cells (radiolabelled virus)
Description: as §1

[5] = Stability in in vitro test media followed by 31P NMR; format: in vitro ADME
Excerpt: The phosphorothioate oligodeoxynucleotides of the present invention have suitable chemical characteristics, namely, the ability to hybridize with complementary DNA/mRNA under physiological conditions, and better solubility properties relative to methylphosphonates. Moreover, the thioesters are as soluble in biological media as the parent compounds.
Thus, it is believed that it is mainly the relative resistance of the phosphorothioate analogs to nucleases that preserves them relative to n-ODNs, and allows them to reach and remain at their target site. This was supported in relation to the media used in the in vitro test system by following the 31P NMR spectra of the n-ODN-1 and S-ODN-1 compounds as a function of time.

Stability in human serum = format: in vitro ADME; conditions: 31P NMR
HL60 cells [6] = experiment: Inhibition of HL60 cell proliferation (cell count); format: cell-based
HL60 cells [7] = experiment: DNA synthesis in HL60 cells (3H-thymidine incorporation); format: cell-based; conditions: FIG. 4, 50 uM, day 1
Description: To obtain the results shown in FIG. 4, nonsense or antisense S-ODNs were added at a final concentration of 50 uM on day 0 to cells seeded at 3×10^5/ml. DNA synthesis was determined on day 1 by incubating cells with 1 uCi 3H-thymidine for 4 hours, after which time 10% trichloroacetic acid was added and acid precipitatable radioactivity was trapped on Whatman glass fiber filters. The filters were subjected to liquid scintillation counting to determine levels of radioactivity.

With `Nc1ncnc2c1ncn2[C@H]1CC[C@@H](CO)O1` [2',3'-dideoxyadenosine, reference compound] the “2.7 Kb env-containing internal KPN I fragment of virus genome” value ([1]; 50 micromoles (lanes E, J), days 4 and 7) was “detected only in lanes A and F” and the minimal effective concentration ([1]; Human immunodeficiency virus 1, ATH-8, Southern blot, days 4 and 7, read-out: lowest concentration significantly inhibiting de novo synthesis of viral DNA) was 1 µM.

For `Nc1ccn([C@H]2CC[C@@H](CO)O2)c(=O)n1` [2',3'-dideoxycytidine, reference compound], the “protection against the virus” value ([2]; 0.5 micromoles) was “complete antiviral activity”.

With (dC)n n = 14 [S-dC14] the induction of gamma-interferon (gamma-interferon) was “No induction of gamma-interferon”, the “protection against the virus” value ([2]; 5 micromoles) was “only a moderate effect” and the “anti-HIV activity / protection against cytopathic effect” value (“anti-HIV activity / protection” for short) [2] was “the most potent antiviral compound among those tested”. For the same molecule, the “anti-HIV activity / protection” value ([2]; listed as 14-mer oligo-dC) was “substantial protection against HIV cytopathic effect”.

In the case of (dC)n n = 28 [S-dC28], the “solubility in 1M NaCl” value (Solubility) is reported as “extremely insoluble in 1M NaCl”, the “changes in T4, HLA-DR, T8, T3, or Tac antigen” value [3] is reported as “no detectable changes” and the “Ratio t1/2 PSoligo/t1/2 POoligo” value (P1 nuclease) is reported as 15. For the same molecule, the “Ratio t1/2 PSoligo/t1/2 POoligo” value (S1 nuclease; oligo-dC, ten-fold higher S1 concentration) was 2, the “2.7 Kb env-containing internal KPN I fragment of virus genome” value ([1]; 1, 5 and 7 micromoles S-dC28 (lanes B-D, G-I), days 4 and 7) was “detected only in lanes A and F” and the “lowest concentration with complete inhibition of de novo synthesis of HIV DNA” value ([1]; Southern blot) was 1 µmol. The “lowest concentration significantly inhibiting de novo synthesis of viral DNA” value ([1]; Southern blot, days 4 and 7) was 1 µM, the “gag protein positivity” value (p24 gag protein of HIV) was “failed to reduce gag protein positivity; also recorded: did not inhibit gag protein positivity” and the “protection against the virus” value ([2]; 0.5 micromoles) was “complete protection against the virus; also recorded: complete antiviral activity”. For the same molecule, the “inhibition of viral replication and protection of ATH8 cells” value ([2]; 3 micromoles) was 100%, the “anti-HIV activity / protection” value [2] was “the most consistent and durable antiviral effects; also recorded: one of the most potent analogs tested” and the “therapeutic index (ratio of cytotoxic to effective concentration)” value ([2]; in vitro) was “comparable in vitro index to those of dideoxycytidine and dideoxyadenosine”. The “inhibition of HIV binding to T4 molecule” value [4] was “No inhibition”.

In the case of “d-(Gs Gs As Gs As Cs As Gs Cs Gs As Cs Gs A) [S-ODN-2]”, the “anti-HIV activity / protection” value [2] is reported as “protected against HIV”.

In the case of “d-(Ts Cs Gs Ts Cs Gs Cs Ts Gs Ts Cs Ts Cs C) [S-ODN-1]”, the phosphorothioate bonds intact ([5]; 10 days) is reported as “still intact after 10 days”, the degradation ([5]; a week) is reported as “no significant degradation even after a week” and the “decomposition based on the total signal intensity” value ([5]; after 10 days) is reported as “less than 5%”. The “anti-HIV activity / protection” value [2] was “substantial activity against HIV; also recorded: protected against HIV”.

With “dAACGTTGAGGGGCAT [O-myc-1, reference compound]” the “half-life in 50% human serum” value (Stability in human serum) was “two to three”.

In the case of dAACGTTGAGGGGCAT [S-myc-1], the “Ratio t1/2 PSoligo/t1/2 POoligo” value (P1 nuclease) is reported as 4, the “Ratio t1/2 PSoligo/t1/2 POoligo” value (S1 nuclease; ODN-4 and myc-1) is reported as 9 and the “effect on cell proliferation” value (HL60 cells [6]; 0.1 micro M, FIG. 3) is reported as “effective”. For the same molecule, the “concentration relative to that required for the normal oligomer” value (HL60 cells [6]; HL60 cells) was “less than 1%”, the “inhibition of cell proliferation (cell count)” value (“inhibition … (cell count)” for short) (HL60 cells [6]; HL60 cells, listed as anti-sense sequence) was “significant inhibition of cell proliferation” and the “inhibition … (cell count)” value (HL60 cells [6]; HL60 cells, listed as phosphorothioate oligodeoxynucleotide analogs of the same anti-sense sequence) was “inhibit proliferation of HL60 cells”. The “inhibition of cell proliferation (3H-thymidine incorporation)” value (HL60 cells [7]) was “significant inhibition of cell proliferation”.

With “nonsense S-ODN: 5'-CTG AAG TGG CAT GAG; non-sense, same composition as anti-sense but in random sequence (dC*dT*dG*dA*dA*dG*dT*dG*dG*dC*dA*dT*dG*dA*dG) [reference compound]” the “inhibition … (cell count)” value (HL60 cells [6]; HL60 cells) was “not all nonsense S-ODN concentrations affected cell proliferation” and the “inhibition … (cell count)” value (HL60 cells [6]; HL60 cells, listed as non-sense sequence) was “none of the controls used, namely, the non-sense sequence, has shown similar activity”.

B1: recombinant gamma-interferon: recombinant gamma-interferon (protein, UniProt P01579 24-161, looked up)
Interferon gamma: QDPYVKEAENLKKYFNAGHSDVADNGTLFLGILKNWKEESDRKIMQSQIVSFYFKLFKNFKDDQSIQKSVETIKEDMNVKFFNSNKKKRDDFEKLTNYSVTDLNVQRKAIHELIQVMAELSPAAKTGKRKRSQMLFRG
For B1, the “inhibition of cytopathic effect” value ([2]; 1000 units added directly to cultures) was “did not inhibit the cytopathic effect”.
